Assays:
Format in all cases: in vivo
corn (Zea mays) = assay: Test A postemergence, corn; conditions: Postemergence, 0 to 100 scale (0 no effect, 100 complete control)
Procedure, shortened: (§1)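 After sowing into a sand-amended loam, pots for the preemergence test were treated by spraying directly onto soil. In parallel, seedlings at the one- to two-leaf stage and 2 to 10 cm tall were treated postemergence with the identical surfactant-containing formulation.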

[1] = test system: barnyardgrass (Echinochloa crus-galli); assay: Test A preemergence, barnyardgrass; conditions: Preemergence; for Plant response rating, Barnyardgrass: 0 to 100 scale (0 no effect, 100 complete control); for Barnyardgrass plant response rating: 125 g ai/ha, visual injury on 0 to 100 scale (0 no effect, 100 complete control), approximately 10 days
Procedure, shortened: as §1

[2] = test system: blackgrass (Alopecurus myosuroides); assay: Test A postemergence, blackgrass; conditions: Postemergence, 0 to 100 scale (0 no effect, 100 complete control)
Procedure, shortened: as §1

[3] = test system: pigweed (Amaranthus retroflexus); assay: Test A preemergence, pigweed; conditions: for Plant response rating, Pigweed: 0 to 100 scale (0 no effect, 100 complete control); for Pigweed plant response rating: 125 g ai/ha, visual injury on 0 to 100 scale (0 no effect, 100 complete control), approximately 10 days
Procedure, shortened: (§2)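 Preemergence: pigweed seeds in loam soil–sand blend received a directed soil spray of test chemicals in a non-phytotoxic solvent with surfactant. Postemergence: barnyardgrass, wheat and galium in pots of the same soil, 2 to 10 cm tall at one- to two-leaf stage, sprayed with the same formulation.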

[4] = test system: barnyardgrass (Echinochloa crus-galli); assay: Test A postemergence, barnyardgrass; conditions: Postemergence, 0 to 100 scale (0 no effect, 100 complete control)
Procedure, shortened: as §2

[5] = test system: ragweed (common ragweed, Ambrosia artemisiifolia); assay: Test A preemergence, ragweed; conditions: Preemergence; for Plant response rating, Ragweed: 0 to 100 scale (0 no effect, 100 complete control); for Ragweed plant response rating: 125 g ai/ha, visual injury on 0 to 100 scale (0 no effect, 100 complete control), approximately 10 days
Procedure, shortened: as §1

[6] = test system: Ryegrass, Italian (Italian ryegrass, Lolium multiflorum); assay: Test A postemergence, Ryegrass, Italian; conditions: Postemergence, 0 to 100 scale (0 no effect, 100 complete control)
Procedure, shortened: as §1

[7] = test system: Foxtail, Giant (giant foxtail, Setaria faberi); assay: Test A preemergence, Foxtail, Giant; conditions: Preemergence; for Plant response rating, Foxtail, Giant: 0 to 100 scale (0 no effect, 100 complete control); for Foxtail, Giant plant response rating: 125 g ai/ha, visual injury on 0 to 100 scale (0 no effect, 100 complete control), approximately 10 days
Procedure, shortened: as §1

[8] = test system: galium (catchweed bedstraw, Galium aparine); assay: Test A postemergence, galium; conditions: Postemergence, 0 to 100 scale (0 no effect, 100 complete control)
Procedure, shortened: as §2

kochia (Bassia scoparia) [9] = assay: Test A postemergence, kochia; conditions: Postemergence, 0 to 100 scale (0 no effect, 100 complete control)
Procedure, shortened: as §1

[10] = test system: Foxtail, Giant (giant foxtail, Setaria faberi); assay: Test A postemergence, Foxtail, Giant; conditions: Postemergence, 0 to 100 scale (0 no effect, 100 complete control)
Procedure, shortened: as §1

kochia (Bassia scoparia) [11] = assay: Test A preemergence, kochia; conditions: Preemergence; for Plant response rating, Kochia: 0 to 100 scale (0 no effect, 100 complete control); for Kochia plant response rating: 125 g ai/ha, visual injury on 0 to 100 scale (0 no effect, 100 complete control), approximately 10 days
Procedure, shortened: as §1

[12] = test system: ragweed (common ragweed, Ambrosia artemisiifolia); assay: Test A postemergence, ragweed; conditions: Postemergence, 0 to 100 scale (0 no effect, 100 complete control)
Procedure, shortened: as §1

[13] = test system: Ryegrass, Italian (Italian ryegrass, Lolium multiflorum); assay: Test A preemergence, Ryegrass, Italian; conditions: Preemergence; for Plant response rating, Ryegrass, Italian: 0 to 100 scale (0 no effect, 100 complete control); for Ryegrass, Italian plant response rating: 125 g ai/ha, visual injury on 0 to 100 scale (0 no effect, 100 complete control), approximately 10 days
Procedure, shortened: as §1

[14] = test system: wheat (Triticum aestivum); assay: Test A postemergence, wheat; conditions: Postemergence, 0 to 100 scale (0 no effect, 100 complete control)
Procedure, shortened: as §2

[15] = test system: pigweed (Amaranthus retroflexus); assay: Test A postemergence, pigweed; conditions: Postemergence, 0 to 100 scale (0 no effect, 100 complete control)
Procedure, shortened: as §1

[16] = 125 g ai/ha, visual injury approx. 10 days
[17] = 31 g ai/ha, visual injury, approx. 10 days
[18] = 1000 g ai/ha, visual injury, approx. 10 days
[19] = 500 g ai/ha, visual injury, approx. 10 days

CSC1CCCN(C(=O)c2cc(NS(=O)(=O)C(F)(F)F)c(C)cc2C)C1 (stereo not drawn) [Compound 3]
Plant response rating, Corn (corn (Zea mays); 31 g ai/ha): 20
Plant response rating, Corn (corn (Zea mays); [16]): 30
Plant response rating, Barnyardgrass [1, 17]: 0
Barnyardgrass plant response rating [1]: 50
Plant response rating, Blackgrass ([2]; 31 g ai/ha): 0
Plant response rating, Blackgrass [2, 16]: 0
Plant response rating, Pigweed [3, 17]: 90
Pigweed plant response rating [3]: 100
Plant response rating, Barnyardgrass ([4]; 31 g ai/ha): 0
Plant response rating, Barnyardgrass [4, 16]: 30
Plant response rating, Ragweed [5, 17]: 0
Ragweed plant response rating [5]: 70
Plant response rating, Ryegrass, Italian ([6]; 31 g ai/ha): 0
Plant response rating, Ryegrass, Italian [6, 16]: 0
Plant response rating, Foxtail, Giant [7, 17]: 20
Foxtail, Giant plant response rating [7]: 50
Plant response rating, Galium ([8]; 31 g ai/ha): 90
Plant response rating, Galium [8, 16]: 90
Plant response rating, Kochia (kochia (Bassia scoparia) [9]; 31 g ai/ha): 10
Plant response rating, Kochia (kochia (Bassia scoparia) [9]; [16]): 40
Plant response rating, Foxtail, Giant ([10]; 31 g ai/ha): 0
Plant response rating, Foxtail, Giant [10, 16]: 0
Plant response rating, Kochia (kochia (Bassia scoparia) [11]; [17]): 30
Kochia plant response rating (kochia (Bassia scoparia) [11]): 80
Plant response rating, Ragweed ([12]; 31 g ai/ha): 40
Plant response rating, Ragweed [12, 16]: 80
Plant response rating, Ryegrass, Italian [13, 17]: 20
Ryegrass, Italian plant response rating [13]: 70
Plant response rating, Wheat ([14]; 31 g ai/ha): 30
Plant response rating, Wheat [14, 16]: 50
Plant response rating, Pigweed ([15]; 31 g ai/ha): 70
Plant response rating, Pigweed [15, 16]: 90

Cc1ccc(C(=O)N2CCC(C)CC2)cc1NS(=O)(=O)C(F)(F)F [Compound 7]
Plant response rating, Corn (corn (Zea mays); [18]): 0
Plant response rating, Barnyardgrass ([1]; 1000 g ai/ha): 80
Plant response rating, Blackgrass [2, 18]: 20
Plant response rating, Pigweed ([3]; 1000 g ai/ha): 80
Plant response rating, Barnyardgrass [4, 18]: 20
Plant response rating, Ragweed ([5]; 1000 g ai/ha): 80
Plant response rating, Ryegrass, Italian [6, 18]: 90
Plant response rating, Foxtail, Giant ([7]; 1000 g ai/ha): 90
Plant response rating, Galium [8, 18]: 40
Plant response rating, Kochia (kochia (Bassia scoparia) [9]; [18]): 40
Plant response rating, Foxtail, Giant [10, 18]: 0
Plant response rating, Kochia (kochia (Bassia scoparia) [11]; 1000 g ai/ha): 30
Plant response rating, Ragweed [12, 18]: 20
Plant response rating, Ryegrass, Italian ([13]; 1000 g ai/ha): 60
Plant response rating, Wheat [14, 18]: 0
Plant response rating, Pigweed [15, 18]: 20

Cc1cc(C)c(C(=O)N2CCC(F)CC2)cc1NS(=O)(=O)C(F)(F)F [Compound 8]
Plant response rating, Corn (corn (Zea mays); [18]): 30
Plant response rating, Barnyardgrass ([1]; 1000 g ai/ha): 100
Plant response rating, Blackgrass [2, 18]: 70
Plant response rating, Pigweed ([3]; 1000 g ai/ha): 100
Plant response rating, Barnyardgrass [4, 18]: 80
Plant response rating, Ragweed ([5]; 1000 g ai/ha): 90
Plant response rating, Ryegrass, Italian [6, 18]: 80
Plant response rating, Foxtail, Giant ([7]; 1000 g ai/ha): 100
Plant response rating, Galium [8, 18]: 20
Plant response rating, Kochia (kochia (Bassia scoparia) [9]; [18]): 80
Plant response rating, Foxtail, Giant [10, 18]: 90
Plant response rating, Kochia (kochia (Bassia scoparia) [11]; 1000 g ai/ha): 100
Plant response rating, Ragweed [12, 18]: 90
Plant response rating, Ryegrass, Italian ([13]; 1000 g ai/ha): 100
Plant response rating, Wheat [14, 18]: 40
Plant response rating, Pigweed [15, 18]: 80

Cc1cc(C)c(C(=O)N2CC(C)OC(C)C2)cc1NS(=O)(=O)C(F)(F)F (stereo not drawn) [Compound 9]
Plant response rating, Corn (corn (Zea mays); [16]): 0
Plant response rating, Corn (corn (Zea mays); [19]): 70
Barnyardgrass plant response rating [1]: 100
Plant response rating, Barnyardgrass ([1]; 500 g ai/ha): 100
Plant response rating, Blackgrass [2, 16]: 30
Plant response rating, Blackgrass [2, 19]: 30
Pigweed plant response rating [3]: 30
Plant response rating, Pigweed ([3]; 500 g ai/ha): 80
Plant response rating, Barnyardgrass [4, 16]: 80
Plant response rating, Barnyardgrass [4, 19]: 90
Ragweed plant response rating [5]: 90
Plant response rating, Ragweed ([5]; 500 g ai/ha): 90
Plant response rating, Ryegrass, Italian [6, 16]: 70
Plant response rating, Ryegrass, Italian [6, 19]: 80
Foxtail, Giant plant response rating [7]: 80
Plant response rating, Foxtail, Giant ([7]; 500 g ai/ha): 100
Plant response rating, Galium [8, 16]: 80
Plant response rating, Galium [8, 19]: 90
Plant response rating, Kochia (kochia (Bassia scoparia) [9]; [16]): 10
Plant response rating, Kochia (kochia (Bassia scoparia) [9]; [19]): 30
Plant response rating, Foxtail, Giant [10, 16]: 20
Plant response rating, Foxtail, Giant [10, 19]: 90
Kochia plant response rating (kochia (Bassia scoparia) [11]): 70
Plant response rating, Kochia (kochia (Bassia scoparia) [11]; 500 g ai/ha): 90
Plant response rating, Ragweed [12, 16]: 70
Plant response rating, Ragweed [12, 19]: 80
Ryegrass, Italian plant response rating [13]: 90
Plant response rating, Ryegrass, Italian ([13]; 500 g ai/ha): 100
Plant response rating, Wheat [14, 16]: 60
Plant response rating, Wheat [14, 19]: 70
Plant response rating, Pigweed [15, 16]: 60
Plant response rating, Pigweed [15, 19]: 80

From US20230278972A1, “SUBSTITUTED HALOALKYL SULFONANILIDE HERBICIDES” (FMC Corporation, priority 2020, published 2023)
